From US7875618B2, “Substituted imidazo[1,5-a]quinoxalines useful as inhibitors of phosphodiesterase 10 for the treatment of neurological and other disorders” (Wyeth, priority 2007, dated 2011)

These molecules were tested against T1, human recombinant PDE10A (Homo sapiens, UniProt Q9Y233) (assay: Inhibition of human recombinant PDE10A ([3H]-cAMP SPA, Method B)). Settings: read-out: PDE10 inhibition IC50 [nM] PDE10A human.
T1 construct: made in house; host or cells: SF21 insect cells (baculovirus)
Format: biochemical
Experimental: The gene was than inserted into a baculovirus vector, ligated with the baculovirus DNA. The enzyme-protein was expressed in SF21-cells. The enzyme was isolated from these cells by harvesting the cells by a centrifugation at 200 g to collect the cells. The cells were resuspended in 50 mM Tris-HCl/5 mM MgCl2 buffer (pH=7.4) and lysed by a sonication of the cells. The cytosolic PDE10A was obtained by a centrifugation at 48000 g for 1 h in the supernatant and stored at −70° C. PDE10 activity was determined in a one step procedure in microtiterplates. […] Nonspecific activity was tested without the enzyme. The reaction was initiated by addition of the substrate solution and was carried out at 37° C. for 30 minutes. Enzymatic activity was stopped by addition of 25 μl YSi-SPA-beads (Amersham-Pharmacia). One hour later the mixture was measured in a liquid scintillation counter for microtiterplates (Microbeta Trilux). To pipette the incubation mixture a robot Biomek (Fa. Beckman) is used. […] For determination of IC50 values the Hill-plot, 2-parameter-model, was used.

T1 sequence (Q9Y233 1-779 isoform Q9Y233-1): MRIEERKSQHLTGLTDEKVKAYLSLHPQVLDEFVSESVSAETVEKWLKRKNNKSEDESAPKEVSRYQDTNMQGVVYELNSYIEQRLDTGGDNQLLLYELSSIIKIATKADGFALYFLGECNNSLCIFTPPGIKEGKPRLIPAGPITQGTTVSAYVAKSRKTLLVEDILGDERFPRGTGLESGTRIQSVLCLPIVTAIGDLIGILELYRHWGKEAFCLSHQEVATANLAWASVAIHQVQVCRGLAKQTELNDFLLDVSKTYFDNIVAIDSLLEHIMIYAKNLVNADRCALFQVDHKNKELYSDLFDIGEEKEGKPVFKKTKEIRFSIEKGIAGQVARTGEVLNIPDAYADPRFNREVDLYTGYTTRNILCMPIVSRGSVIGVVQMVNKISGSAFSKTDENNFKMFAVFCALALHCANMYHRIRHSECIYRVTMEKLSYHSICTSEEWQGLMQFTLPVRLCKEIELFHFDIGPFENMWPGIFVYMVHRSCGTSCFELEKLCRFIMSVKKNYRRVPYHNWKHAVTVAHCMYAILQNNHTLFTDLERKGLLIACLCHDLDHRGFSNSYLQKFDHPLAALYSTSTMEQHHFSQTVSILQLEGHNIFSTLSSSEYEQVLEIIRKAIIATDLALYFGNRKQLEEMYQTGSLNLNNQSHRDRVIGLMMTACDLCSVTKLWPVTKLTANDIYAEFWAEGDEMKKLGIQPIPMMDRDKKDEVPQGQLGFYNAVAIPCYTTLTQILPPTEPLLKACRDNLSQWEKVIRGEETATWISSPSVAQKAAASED

| SMILES | IC50 [nM] |
| --- | --- |
| COc1cc(F)c2nc(C)c3c(C)nc(-c4ccccc4C)n3c2c1 [Example 31, 6-Fluoro-8-methoxy-3,4-dimethyl-1-(2-methylphenyl)-imidazo[1,5-a]quinoxaline] | ≤ 10 |
| COc1cc(F)c2nc(C)c3c(C)nc(-c4cccc(F)c4C)n3c2c1 [Example 32, 6-Fluoro-1-(3-fluoro-2-methylphenyl)-8-methoxy-3,4-dimethylimidazo[1,5-a]quinoxaline] | ≤ 10 |
| COc1cc(F)c2nc(C)c3c(C)nc(-c4ccc(F)cc4Cl)n3c2c1 [Example 33, 1-(2-Chloro-4-fluorophenyl)-6-fluoro-8-methoxy-3,4-dimethylimidazo[1,5-a]quinoxaline] | ≤ 10 |
| Cc1nc(F)ccc1-c1nc(C)c2c(C)nc3ccc(Cl)cc3n12 [Example 62, 8-chloro-1-(6-fluoro-2-methylpyridin-3-yl)-3,4-dimethylimidazo[1,5-a]quinoxaline] | 10 to 100 |
| Cc1ccccc1-c1nc(C)c2c(C)nc3ccc(Cl)cc3n12 [Example 63, 8-chloro-3,4-dimethyl-1-(2-methylphenyl)imidazo[1,5-a]quinoxaline] | ≤ 10 |
| Cc1nc(-c2cccc(C(N)=O)c2)n2c1c(C)nc1ccc(Cl)cc12 [Example 64, 3-(8-chloro-3,4-dimethylimidazo[1,5-a]quinoxalin-1-yl)benzamide] | ≤ 10 |
| Cc1nc(-c2ccccc2Cl)n2c1c(C)nc1ccc(Cl)cc12 [Example 67, 8-chloro-1-(2-chlorophenyl)-3,4-dimethylimidazo[1,5-a]quinoxaline] | ≤ 10 |
| Cc1nc(-c2ccc(F)c(C(N)=O)c2)n2c1c(C)nc1ccc(Cl)cc12 [Example 68, 5-(8-chloro-3,4-dimethylimidazo[1,5-a]quinoxalin-1-yl)-2-fluorobenzamide] | 10 to 100 |
| Cc1nn(C)c(C)c1-c1nc(C)c2c(C)nc3ccc(Cl)cc3n12 [Example 69, 8-chloro-3,4-dimethyl-1-(1,3,5-trimethyl-1H-pyrazol-4-yl)imidazo[1,5-a]quinoxaline] | 10 to 100 |
| Cc1ccccc1-c1nc(C)c2c(C)nc3c(F)cc(F)cc3n12 [Example 70, 6,8-difluoro-3,4-dimethyl-1-(2-methylphenyl)imidazo[1,5-a]quinoxaline] | ≤ 10 |
| COc1nc(C)c2c(C)nc3c(F)cc(F)cc3n12 [Example 73, 6,8-difluoro-1-methoxy-3,4-dimethylimidazo[1,5-a]quinoxaline] | ≥ 100 |
| COc1cc(F)c2nc(C)c3c(C)nc(-c4ccccc4Cl)n3c2c1 [Example 77, 1-(2-chlorophenyl)-6-fluoro-8-methoxy-3,4-dimethylimidazo[1,5-a]quinoxaline] | ≤ 10 |
| COc1cc(F)c2nc(C)c3c(C)nc(-c4ccc(F)c(C(N)=O)c4)n3c2c1 [Example 78, 2-fluoro-5-(6-fluoro-8-methoxy-3,4-dimethylimidazo[1,5-a]quinoxalin-1-yl)benzamide] | ≤ 10 |
| COc1ccncc1-c1nc(C)c2c(C)nc3c(OC)cc(F)cc3n12 [Example 80, 8-fluoro-6-methoxy-1-(4-methoxypyridin-3-yl)-3,4-dimethylimidazo[1,5-a]quinoxaline] | ≤ 10 |
| COc1cc(F)cc2c1nc(C)c1c(C)nc(-c3ccccc3Cl)n12 [Example 85, 1-(2-chlorophenyl)-8-fluoro-6-methoxy-3,4-dimethylimidazo[1,5-a]quinoxaline] | ≤ 10 |
| Cc1ccsc1-c1nc(C)c2c(C)nc3ccccc3n12 [Example 99, 3,4-dimethyl-1-(3-methyl-2-thienyl)imidazo[1,5-a]quinoxaline] | 10 to 100 |
| Cc1noc(C)c1-c1nc(C)c2c(C)nc3ccccc3n12 [Example 100, 1-(3,5-dimethylisoxazol-4-yl)-3,4-dimethylimidazo[1,5-a]quinoxaline] | ≥ 100 |
| Cc1nc(-c2cccc(C(N)=O)c2)n2c1c(C)nc1ccccc12 [Example 101, 3-(3,4-dimethylimidazo[1,5-a]quinoxalin-1-yl)benzamide] | 10 to 100 |
| Cc1nc(-c2cc(C(N)=O)ccc2F)n2c1c(C)nc1ccccc12 [Example 102, 3-(3,4-dimethylimidazo[1,5-a]quinoxalin-1-yl)-4-fluorobenzamide] | 10 to 100 |
| Cc1nc(F)ccc1-c1nc(C)c2c(C)nc3ccccc3n12 [Example 103, 1-(6-fluoro-2-methylpyridin-3-yl)-3,4-dimethylimidazo[1,5-a]quinoxaline] | 10 to 100 |
| COc1ccc2nc(C)c3c(C)nc(-c4ccc(F)cc4Cl)n3c2c1 [Example 105, 1-(2-chloro-4-fluorophenyl)-8-methoxy-3,4-dimethylimidazo[1,5-a]quinoxaline] | ≤ 10 |

| SMILES | IC50 [nM] |
| --- | --- |
| COc1ccc2nc(C)c3c(C)nc(-c4ccc(Cl)cc4C(F)(F)F)n3c2c1 [Example 106, 1-[4-chloro-2-(trifluoromethyl)phenyl]-8-methoxy-3,4-dimethylimidazo[1,5-a]quinoxaline] | 10 to 100 |
| COc1ccc2nc(C)c3c(C)nc(-c4cc(Cl)ccc4C)n3c2c1 [Example 107, 1-(5-chloro-2-methylphenyl)-8-methoxy-3,4-dimethylimidazo[1,5-a]quinoxaline] | ≤ 10 |
| COc1ccc2nc(C)c3c(C)nc(-c4ccc(F)cc4C)n3c2c1 [Example 108, 1-(4-fluoro-2-methylphenyl)-8-methoxy-3,4-dimethylimidazo[1,5-a]quinoxaline] | 10 to 100 |
| COc1ccc2nc(C)c3c(C)nc(-c4cccc(F)c4C)n3c2c1 [Example 109, 1-(3-fluoro-2-methylphenyl)-8-methoxy-3,4-dimethylimidazo[1,5-a]quinoxaline] | ≤ 10 |
| COc1ccc2nc(C)c3c(C)nc(-c4cnccc4OC)n3c2c1 [Example 110, 8-methoxy-1-(4-methoxypyridin-3-yl)-3,4-dimethylimidazo[1,5-a]quinoxaline] | 10 to 100 |
| COc1ccc2nc(C)c3c(C)nc(-c4cccc(C(N)=O)c4)n3c2c1 [Example 112, 3-(8-methoxy-3,4-dimethylimidazo[1,5-a]quinoxalin-1-yl)benzamide] | ≤ 10 |
| COc1ccc2nc(C)c3c(C)nc(-c4ccc(F)nc4C)n3c2c1 [Example 113, 1-(6-fluoro-2-methylpyridin-3-yl)-8-methoxy-3,4-dimethylimidazo[1,5-a]quinoxaline] | 10 to 100 |
| COc1ccc2nc(C)c3c(C)nc(-c4cc(C(N)=O)ccc4F)n3c2c1 [Example 114, 4-fluoro-3-(8-methoxy-3,4-dimethylimidazo[1,5-a]quinoxalin-1-yl)benzamide] | ≤ 10 |
| COc1ccc2nc(C)c3c(C)nc(-c4ccccc4C)n3c2c1 [Example 115, 8-methoxy-3,4-dimethyl-1-(2-methylphenyl)imidazo[1,5-a]quinoxaline] | ≤ 10 |
| Cc1nc(F)ccc1-c1nc(C)c2c(C)nc3ccc(OC(F)(F)F)cc3n12 [Example 117, 1-(6-fluoro-2-methylpyridin-3-yl)-3,4-dimethyl-8-(trifluoromethoxy)imidazo[1,5-a]quinoxaline] | 10 to 100 |
| Cc1ccccc1-c1nc(C)c2c(C)nc3ccc(OC(F)(F)F)cc3n12 [Example 118, 3,4-dimethyl-1-(2-methylphenyl)-8-(trifluoromethoxy)imidazo[1,5-a]quinoxaline] | ≤ 10 |
| Cc1nc(-c2cccc(C(N)=O)c2)n2c1c(C)nc1ccc(OC(F)(F)F)cc12 [Example 120, 3-[3,4-dimethyl-8-(trifluoromethoxy)imidazo[1,5-a]quinoxalin-1-yl]benzamide] | ≤ 10 |
| COc1ccncc1-c1nc(C)c2c(C)nc3ccc(C(F)(F)F)cc3n12 [Example 123, 1-(4-methoxypyridin-3-yl)-3,4-dimethyl-8-(trifluoromethyl)imidazo[1,5-a]quinoxaline] | 10 to 100 |
| Cc1ccccc1-c1nc(C)c2c(C)nc3ccc(C(F)(F)F)cc3n12 [Example 125, 3,4-dimethyl-1-(2-methylphenyl)-8-(trifluoromethyl)imidazo[1,5-a]quinoxaline] | 10 to 100 |
| COc1cc2nc(C)c3c(C)nc(-c4ccccc4C)n3c2cc1Cl [Example 126, 8-chloro-7-methoxy-3,4-dimethyl-1-(2-methylphenyl)imidazo[1,5-a]quinoxaline] | ≤ 10 |
| COc1cc2nc(C)c3c(C)nc(-c4ccncc4C)n3c2cc1Cl [Example 127, 8-chloro-7-methoxy-3,4-dimethyl-1-(3-methylpyridin-4-yl)imidazo[1,5-a]quinoxaline] | ≤ 10 |
| COc1cc2nc(C)c3c(C)nc(-c4cnccc4C)n3c2cc1Cl [Example 128, 8-chloro-7-methoxy-3,4-dimethyl-1-(4-methylpyridin-3-yl)imidazo[1,5-a]quinoxaline] | 10 to 100 |
| COc1cc2nc(C)c3c(C)nc(-c4ccccc4Cl)n3c2cc1Cl [Example 129, 8-chloro-1-(2-chlorophenyl)-7-methoxy-3,4-dimethylimidazo[1,5-a]quinoxaline] | ≤ 10 |
| COc1cc2nc(C)c3c(C)nc(-c4cccnc4C)n3c2cc1Cl [Example 130, 8-chloro-7-methoxy-3,4-dimethyl-1-(2-methylpyridin-3-yl)imidazo[1,5-a]quinoxaline] | ≤ 10 |
| COc1cc2nc(C)c3c(C)nc(-c4c(C)nn(C)c4C)n3c2cc1Cl [Example 131, 8-chloro-7-methoxy-3,4-dimethyl-1-(1,3,5-trimethyl-1H-pyrazol-4-yl)imidazo[1,5-a]quinoxaline] | ≤ 10 |
| CCOc1cc2nc(C)c3c(C)nc(-c4ccccc4C)n3c2cc1Cl [Example 132, 8-Chloro-7-ethoxy-3,4-dimethyl-1-(2-methylphenyl)imidazo[1,5-a]quinoxaline] | 10 to 100 |
